From paper PMC5218480 (PLoS ONE, 2017)

Tested on: MV-4-11 cells
Test: Gene expression microarray analysis (Affymetrix PrimeView) and GSEA
Format: cell-based, human
Design: RFU PODN (11730768_x_at) / Fold change /veh PODN (11730768_x_at) / RFU LINC00158 (11744669_a_at) / Fold change /veh LINC00158 (11744669_a_at) / RFU DUSP10 (11751237_a_at) / Fold change /veh DUSP10 (11751237_a_at) / RFU ID3 (11757404_x_at) / Fold change /veh ID3 (11757404_x_at) / RFU PLEKHG5 (11737974_s_at) / Fold change /veh PLEKHG5 (11737974_s_at) / RFU LRRC4B (11730491_at) / Fold change /veh LRRC4B (11730491_at) / RFU GIMAP4 (11747438_a_at) / Fold change /veh GIMAP4 (11747438_a_at) / RFU KRT8 (11758183_x_at) / Fold change /veh KRT8 (11758183_x_at) / RFU CNN1 (11734310_a_at) / Fold change /veh CNN1 (11734310_a_at) / RFU VPS37D (11726825_at) / Fold change /veh VPS37D (11726825_at) / RFU C10orf10 (11716522_x_at) / Fold change /veh C10orf10 (11716522_x_at) / RFU KIR2DL2 /// KIR2DL4 /// KIR2DL5A /// KIR2DL5B /// KIR2DS1 /// KIR2DS2 /// KIR2DS3 /// KIR2DS4 /// KIR3DL3 /// KIR3DL3 /// KIR3DS1 (11738374_at) / Fold change /veh KIR2DL2 /// KIR2DL4 /// KIR2DL5A /// KIR2DL5B /// KIR2DS1 /// KIR2DS2 /// KIR2DS3 /// KIR2DS4 /// KIR3DL3 /// KIR3DL3 /// KIR3DS1 (11738374_at) / RFU C1QL1 (11718748_at) / Fold change /veh C1QL1 (11718748_at) / RFU TMPRSS4 (11747572_a_at) / Fold change /veh TMPRSS4 (11747572_a_at) / RFU HAMP (11756126_x_at) / Fold change /veh HAMP (11756126_x_at) / RFU RNFT2 (11725882_a_at) / Fold change /veh RNFT2 (11725882_a_at) / RFU NR4A2 (11747474_a_at) / Fold change /veh NR4A2 (11747474_a_at) / RFU ABCC12 (11746883_a_at) / Fold change /veh ABCC12 (11746883_a_at) / RFU TMEM136 (11760407_x_at) / Fold change /veh TMEM136 (11760407_x_at) / RFU CLDN22 /// WWC2 (11732394_at) / Fold change /veh CLDN22 /// WWC2 (11732394_at) / RFU HLA-DPB1 (11760878_x_at) / Fold change /veh HLA-DPB1 (11760878_x_at) / RFU SPINT1 (11716480_a_at) / Fold change /veh SPINT1 (11716480_a_at) / RFU GAP43 (11754022_s_at) / Fold change /veh GAP43 (11754022_s_at) / RFU A4GNT (11735810_at) / Fold change /veh A4GNT (11735810_at) / RFU PRB3 (11715151_x_at) / Fold change /veh PRB3 (11715151_x_at) / RFU TUBB4B (11761932_at) / Fold change /veh TUBB4B (11761932_at) / RFU CAPN14 (11732068_a_at) / Fold change /veh CAPN14 (11732068_a_at) / RFU TMCC2 (11721928_a_at) / Fold change /veh TMCC2 (11721928_a_at) / RFU IRGQ (11745062_a_at) / Fold change /veh IRGQ (11745062_a_at) / RFU FAM174B (11720279_a_at) / Fold change /veh FAM174B (11720279_a_at) / RFU TMPRSS4 (11748680_a_at) / Fold change /veh TMPRSS4 (11748680_a_at) / RFU FAM212B (11763350_a_at) / Fold change /veh FAM212B (11763350_a_at) / RFU PLEKHG5 (11743358_a_at) / Fold change /veh PLEKHG5 (11743358_a_at) / RFU ZSCAN30 (11745921_a_at) / Fold change /veh ZSCAN30 (11745921_a_at) / RFU CMKLR1 (11741424_a_at) / Fold change /veh CMKLR1 (11741424_a_at) / RFU LOC101060620 /// MAPK8IP1 (11723275_at) / Fold change /veh LOC101060620 /// MAPK8IP1 (11723275_at) / RFU SPTSSB (11747773_x_at) / Fold change /veh SPTSSB (11747773_x_at) / RFU PRSS12 (11739890_at) / Fold change /veh PRSS12 (11739890_at) / RFU BIN1 (11741810_x_at) / Fold change /veh BIN1 (11741810_x_at) / RFU WNT11 (11732464_a_at) / Fold change /veh WNT11 (11732464_a_at) / RFU C10orf10 (11716521_a_at) / Fold change /veh C10orf10 (11716521_a_at) / RFU C5orf56 (11738089_at) / Fold change /veh C5orf56 (11738089_at) / RFU CYB561 (11721691_x_at) / Fold change /veh CYB561 (11721691_x_at) / RFU ANKRD19P (11752326_a_at) / Fold change /veh ANKRD19P (11752326_a_at) / RFU OR2T12 /// OR2T33 /// OR2T8 (11738714_s_at) / Fold change /veh OR2T12 /// OR2T33 /// OR2T8 (11738714_s_at) / RFU VCAN (11748164_a_at) / Fold change /veh VCAN (11748164_a_at) / RFU JSRP1 (11732532_at) / Fold change /veh JSRP1 (11732532_at) / RFU KRTAP10-11 (11738290_x_at) / Fold change /veh KRTAP10-11 (11738290_x_at) / RFU MYO3A (11730013_a_at) / Fold change /veh MYO3A (11730013_a_at) / RFU EBF3 (11725865_a_at) / Fold change /veh EBF3 (11725865_a_at) / RFU CAMK2N1 (11719241_x_at) / Fold change /veh CAMK2N1 (11719241_x_at) / RFU C5orf56 (11738088_a_at) / Fold change /veh C5orf56 (11738088_a_at) / RFU OLFML3 (11715873_a_at) / Fold change /veh OLFML3 (11715873_a_at) / RFU LOC100653217 /// NTM (11731650_a_at) / Fold change /veh LOC100653217 /// NTM (11731650_a_at) / RFU MAPK11 (11762145_a_at) / Fold change /veh MAPK11 (11762145_a_at) / RFU FIZ1 (11724087_x_at) / Fold change /veh FIZ1 (11724087_x_at) / RFU OASL (11726364_x_at) / Fold change /veh OASL (11726364_x_at) / RFU SOX15 (11748057_x_at) / Fold change /veh SOX15 (11748057_x_at) / RFU CD79A (11719716_a_at) / Fold change /veh CD79A (11719716_a_at) / RFU HIST1H1D (11736915_at) / Fold change /veh HIST1H1D (11736915_at) / RFU CASKIN2 (11723855_a_at) / Fold change /veh CASKIN2 (11723855_a_at) / RFU LOC730098 (11760151_x_at) / Fold change /veh LOC730098 (11760151_x_at) / RFU OR4N2 (11742367_at) / Fold change /veh OR4N2 (11742367_at) / RFU PRRT2 (11749266_a_at) / Fold change /veh PRRT2 (11749266_a_at) / RFU SNX32 (11753110_a_at) / Fold change /veh SNX32 (11753110_a_at) / RFU CDHR5 (11726645_a_at) / Fold change /veh CDHR5 (11726645_a_at) / RFU RCAN1 (11760418_a_at) / Fold change /veh RCAN1 (11760418_a_at) / RFU FAM167A (11723789_a_at) / Fold change /veh FAM167A (11723789_a_at) / RFU FAM26E (11764081_at) / Fold change /veh FAM26E (11764081_at) / RFU ISYNA1 (11749810_s_at) / Fold change /veh ISYNA1 (11749810_s_at) / RFU ACY1 (11761880_at) / Fold change /veh ACY1 (11761880_at) / RFU 11764098_at / Fold change /veh 11764098_at / RFU SAMD14 (11745864_x_at) / Fold change /veh SAMD14 (11745864_x_at) / RFU NPB (11741838_a_at) / Fold change /veh NPB (11741838_a_at) / RFU TMPRSS6 (11731388_a_at) / Fold change /veh TMPRSS6 (11731388_a_at) / RFU KRTAP10-2 (11738614_at) / Fold change /veh KRTAP10-2 (11738614_at) / RFU ARHGAP8 /// PRR5-ARHGAP8 (11727945_x_at) / Fold change /veh ARHGAP8 /// PRR5-ARHGAP8 (11727945_x_at) / RFU KRTAP5-7 /// NADSYN1 (11734609_at) / Fold change /veh KRTAP5-7 /// NADSYN1 (11734609_at) / RFU RASL12 (11751679_a_at) / Fold change /veh RASL12 (11751679_a_at) / RFU CDKN2B (11736163_a_at) / Fold change /veh CDKN2B (11736163_a_at) / RFU PRF1 (11729649_at) / Fold change /veh PRF1 (11729649_at) / RFU, ZNF638 /// ZNF638-IT1 / Fold change vs veh, ZNF638 /// ZNF638-IT1 / RFU, PANK3 / Fold change vs veh, PANK3 / RFU, SH3YL1 / Fold change vs veh, SH3YL1 / RFU, ZEB2 / Fold change vs veh, ZEB2 / RFU, NRIP1 / Fold change vs veh, NRIP1 / RFU, PTTG1IP / Fold change vs veh, PTTG1IP / RFU, CAPN2 / Fold change vs veh, CAPN2 / RFU, MED14 / Fold change vs veh, MED14 / RFU, SNORA58 / Fold change vs veh, SNORA58 / RFU, C1orf63 / Fold change vs veh, C1orf63 / RFU, LRRFIP1 / Fold change vs veh, LRRFIP1 / RFU, NDUFAF7 / Fold change vs veh, NDUFAF7 / RFU, SLC12A2 / Fold change vs veh, SLC12A2 / RFU, IBTK / Fold change vs veh, IBTK / RFU, ESF1 / Fold change vs veh, ESF1 / Fold change vs veh, TMEM50B / RFU, TAOK1 / Fold change vs veh, TAOK1 / RFU, ACBD3 / Fold change vs veh, ACBD3 / RFU, TMA16 / Fold change vs veh, TMA16 / RFU, RWDD3 / Fold change vs veh, RWDD3 / RFU, BCAT1 / Fold change vs veh, BCAT1 / RFU, EDEM3 / Fold change vs veh, EDEM3 / RFU, TMEM33 / Fold change vs veh, TMEM33 / RFU, WDR75 / Fold change vs veh, WDR75 / RFU, AHCTF1 / Fold change vs veh, AHCTF1 / RFU, TFRC / Fold change vs veh, TFRC / RFU, ZDHHC17 / Fold change vs veh, ZDHHC17 / RFU, NOM1 / Fold change vs veh, NOM1 / RFU, ARL8B / Fold change vs veh, ARL8B / RFU, ZBTB11 / Fold change vs veh, ZBTB11 / RFU, TAMM41 / Fold change vs veh, TAMM41 / RFU, KIAA1704 /// LOC100996395 / Fold change vs veh, KIAA1704 /// LOC100996395 / RFU, ING1 / Fold change vs veh, ING1 / RFU, TRMT61B / Fold change vs veh, TRMT61B / RFU, FUBP3 / Fold change vs veh, FUBP3 / RFU, TP53 / Fold change vs veh, TP53 / RFU, TNKS2 / Fold change vs veh, TNKS2 / RFU, ZFP14 / Fold change vs veh, ZFP14 / RFU, ACTR2 / Fold change vs veh, ACTR2 / RFU, PPP3R1 / Fold change vs veh, PPP3R1 / RFU, PIK3R1 / Fold change vs veh, PIK3R1 / RFU, HNRNPA1 / Fold change vs veh, HNRNPA1 / RFU, RNF170 / Fold change vs veh, RNF170 / RFU, ZNF28 / Fold change vs veh, ZNF28 / RFU, RNGTT / Fold change vs veh, RNGTT / RFU, OGT / Fold change vs veh, OGT / RFU, BRD1 / Fold change vs veh, BRD1 / RFU, MARS / Fold change vs veh, MARS / RFU, ZNF655 / Fold change vs veh, ZNF655 / RFU, FAHD1 / Fold change vs veh, FAHD1 / RFU, BDP1 / Fold change vs veh, BDP1 / RFU, LRRCC1 / Fold change vs veh, LRRCC1 / RFU, ARID1A / Fold change vs veh, ARID1A / RFU, ZNF146 / Fold change vs veh, ZNF146 / RFU, ZNF330 / Fold change vs veh, ZNF330 / RFU, GPN3 / Fold change vs veh, GPN3 / RFU, C9orf123 / Fold change vs veh, C9orf123 / RFU, N4BP2L2 / Fold change vs veh, N4BP2L2 / RFU, ARFIP1 / Fold change vs veh, ARFIP1 / RFU, FAM179B / Fold change vs veh, FAM179B / RFU, BCL10 / Fold change vs veh, BCL10 / RFU, UHRF1BP1L / Fold change vs veh, UHRF1BP1L / RFU, BET1 / Fold change vs veh, BET1 / RFU, CNOT2 / Fold change vs veh, CNOT2 / RFU, ZNF268 / Fold change vs veh, ZNF268 / Fold change vs veh, ZNF507 / RFU, DGCR2 / Fold change vs veh, DGCR2 / RFU, WDSUB1 / Fold change vs veh, WDSUB1 / Fold change vs veh, HSP90B1 /// MIR3652 / RFU, ADSS / Fold change vs veh, ADSS / RFU, GK / Fold change vs veh, GK / RFU, ZNF148 / Fold change vs veh, ZNF148 / RFU, TAF9 / Fold change vs veh, TAF9 / RFU, SLC1A5 / Fold change vs veh, SLC1A5 / RFU, SLMO2 / Fold change vs veh, SLMO2 / RFU, ABCC4 / Fold change vs veh, ABCC4 / RFU, LOC101060439 /// RAP1B / Fold change vs veh, LOC101060439 /// RAP1B / RFU, RFX7 / Fold change vs veh, RFX7 / RFU, GTPBP10 / Fold change vs veh, GTPBP10 / RFU, CNEP1R1 / Fold change vs veh, CNEP1R1 / RFU, BIVM-ERCC5 /// ERCC5 / Fold change vs veh, BIVM-ERCC5 /// ERCC5 / RFU, ILF3 / Fold change vs veh, ILF3 / RFU 11762660_at / Fold change /veh 11762660_at / RFU VCAN (11757783_s_at) / Fold change /veh VCAN (11757783_s_at) / RFU DDX43 (11728927_at) / Fold change /veh DDX43 (11728927_at) / RFU KRT8 (11758188_x_at) / Fold change /veh KRT8 (11758188_x_at) / RFU NKD1 (11759106_at) / Fold change /veh NKD1 (11759106_at) / RFU SRD5A1 (11742802_a_at) / Fold change /veh SRD5A1 (11742802_a_at) / RFU TPSAB1 /// TPSB2 (11721975_s_at) / Fold change /veh TPSAB1 /// TPSB2 (11721975_s_at) / RFU GSTM3 (11746129_a_at) / Fold change /veh GSTM3 (11746129_a_at) / RFU IL23R (11737362_x_at) / Fold change /veh IL23R (11737362_x_at) / RFU TMEM51 (11727254_a_at) / Fold change /veh TMEM51 (11727254_a_at) / RFU PIWIL2 (11732686_x_at) / Fold change /veh PIWIL2 (11732686_x_at) / RFU ORM1 (11744905_x_at) / Fold change /veh ORM1 (11744905_x_at) / RFU CCDC152 (11743942_at) / Fold change /veh CCDC152 (11743942_at) / RFU ECM1 (11717891_a_at) / Fold change /veh ECM1 (11717891_a_at) / RFU IL23R (11748794_a_at) / Fold change /veh IL23R (11748794_a_at) / RFU TNFAIP8L3 (11732012_x_at) / Fold change /veh TNFAIP8L3 (11732012_x_at) / RFU MBOAT4 (11741988_at) / Fold change /veh MBOAT4 (11741988_at) / RFU 11764193_at / Fold change /veh 11764193_at / RFU TMEM53 (11763286_at) / Fold change /veh TMEM53 (11763286_at) / RFU MAGEB2 (11727129_at) / Fold change /veh MAGEB2 (11727129_at) / RFU TMEM200A (11744735_a_at) / Fold change /veh TMEM200A (11744735_a_at) / RFU CCDC152 (11751479_a_at) / Fold change /veh CCDC152 (11751479_a_at) / RFU FAM211A (11726209_a_at) / Fold change /veh FAM211A (11726209_a_at) / RFU RGS16 (11746705_a_at) / Fold change /veh RGS16 (11746705_a_at) / RFU VCAN (11755009_s_at) / Fold change /veh VCAN (11755009_s_at) / RFU RHOB (11743442_s_at) / Fold change /veh RHOB (11743442_s_at) / RFU RGS16 (11720943_a_at) / Fold change /veh RGS16 (11720943_a_at) / RFU RGS16 (11720944_at) / Fold change /veh RGS16 (11720944_at) / RFU, VPS4B / Fold change vs veh, VPS4B / RFU, CREB1 / Fold change vs veh, CREB1 / RFU, DNAJC13 / Fold change vs veh, DNAJC13 / RFU, GNAQ / Fold change vs veh, GNAQ / RFU, CDK5R1 / Fold change vs veh, CDK5R1 / RFU, ZRANB3 / Fold change vs veh, ZRANB3 / RFU, CUL4A / Fold change vs veh, CUL4A / RFU, CCNY / Fold change vs veh, CCNY / RFU, UFL1 / Fold change vs veh, UFL1 / RFU, COG3 / Fold change vs veh, COG3 / RFU, DIAPH2 / Fold change vs veh, DIAPH2 / RFU, SKA2 / Fold change vs veh, SKA2 / RFU, AFF3 / Fold change vs veh, AFF3 / RFU, LMF1 / Fold change vs veh, LMF1 / RFU, IPO11 / Fold change vs veh, IPO11 / RFU, DFFB / Fold change vs veh, DFFB / RFU, FOXP1 / Fold change vs veh, FOXP1 / RFU, CARD8 / Fold change vs veh, CARD8 / RFU, STRN3 / Fold change vs veh, STRN3 / RFU, ADK / Fold change vs veh, ADK / RFU, RASSF2 / Fold change vs veh, RASSF2 / RFU, WIPF1 / Fold change vs veh, WIPF1 / RFU, LARP1B / Fold change vs veh, LARP1B / RFU, RASA1 / Fold change vs veh, RASA1 / RFU, RB1 / Fold change vs veh, RB1 / RFU, PPFIA1 / Fold change vs veh, PPFIA1 / RFU, MAT2A / Fold change vs veh, MAT2A / RFU, CCT5 / Fold change vs veh, CCT5 / RFU, WDR92 / Fold change vs veh, WDR92 / RFU, CUX1 / Fold change vs veh, CUX1 / RFU, TTC7A / Fold change vs veh, TTC7A / RFU, TMEM135 / Fold change vs veh, TMEM135 / RFU, DEPTOR / Fold change vs veh, DEPTOR / RFU, CPM / Fold change vs veh, CPM / RFU, DNAJB6 / Fold change vs veh, DNAJB6 / RFU, CACNA2D3 / Fold change vs veh, CACNA2D3 / RFU, DTX4 / Fold change vs veh, DTX4 / RFU, TFCP2 / Fold change vs veh, TFCP2 / RFU, GMCL1 /// GMCL1P1 / Fold change vs veh, GMCL1 /// GMCL1P1 / RFU, AEBP2 / Fold change vs veh, AEBP2 / RFU, SNHG1 /// SNORD22 /// SNORD25 /// SNORD26 /// SNORD27 /// SNORD28 /// SNORD29 /// SNORD31 / Fold change vs veh, SNHG1 /// SNORD22 /// SNORD25 /// SNORD26 /// SNORD27 /// SNORD28 /// SNORD29 /// SNORD31 / Fold change (Aza/veh), C12orf56 (ProbeSet 11735607_a_at) / Fold change (ACY-1035/veh), C12orf56 (ProbeSet 11735607_a_at) / Fold change (Aza/veh), FGFR1OP (ProbeSet 11751329_s_at) / Fold change (ACY-1035/veh), FGFR1OP (ProbeSet 11751329_s_at) / Fold change (Aza/veh), VPS36 (ProbeSet 11739960_a_at) / Fold change (ACY-1035/veh), VPS36 (ProbeSet 11739960_a_at) / RFU SYPL1 (11715823_x_at) / Fold change /veh SYPL1 (11715823_x_at) / RFU IGFBP7 (11715501_s_at) / Fold change /veh IGFBP7 (11715501_s_at) / RFU REEP3 (11722064_at) / Fold change /veh REEP3 (11722064_at) / RFU IGLL1 (11728026_x_at) / Fold change /veh IGLL1 (11728026_x_at): dose or concentration left out as unconfirmed
Settings: ProbeSet 11733176_x_at; LIST B

Nc1ncn([C@@H]2O[C@H](CO)[C@@H](O)[C@H]2O)c(=O)n1 [azacitidine]
Fold change vs veh, ZNF507: 0.97
